Experimental data as given in patent US20260200947A1, “FUSED CYCLIC COMPOUNDS AND USE THEREOF” (Jacobio Pharmaceuticals Co., Ltd., priority 2022, published 2026).
pIC50: −log10 of the molar value. Like-named read-outs stand apart in the source and are kept apart here.

Experiments:
GDP-KRAS G12D = GDP-KRAS G12D (Homo sapiens, UniProt P01116, G12D); assay: biochemical
GDP-KRAS G12V = GDP-KRAS G12V (Homo sapiens, UniProt P01116, G12V); assay: biochemical
GppNp-KRAS G12D = GppNp-KRAS G12D (Homo sapiens, UniProt P01116, G12D); assay: biochemical
GppNp-KRAS G12D, sequence (P01116 1-169 isoform P01116-2 G12D): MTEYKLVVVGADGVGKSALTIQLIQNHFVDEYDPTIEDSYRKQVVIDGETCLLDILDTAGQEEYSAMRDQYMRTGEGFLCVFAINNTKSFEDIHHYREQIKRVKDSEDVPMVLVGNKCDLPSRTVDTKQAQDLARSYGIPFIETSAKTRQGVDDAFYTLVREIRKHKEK

GppNp-KRAS G12V = GppNp-KRAS G12V (Homo sapiens, UniProt P01116, G12V); assay: biochemical
GppNp-KRAS G12V, sequence (P01116 1-169 isoform P01116-2 G12V): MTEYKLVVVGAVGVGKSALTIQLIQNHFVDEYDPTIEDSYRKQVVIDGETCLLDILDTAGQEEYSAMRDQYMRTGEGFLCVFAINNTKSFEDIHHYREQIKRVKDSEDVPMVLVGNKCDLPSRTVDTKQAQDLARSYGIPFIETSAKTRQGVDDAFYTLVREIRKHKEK

SW620 cells (K-Ras G12V) [1] = assay: Phospho-ERK1/2(THR202/TYR204) HTRF assay, SW620; assay type: cell-based; details: Homo sapiens, SW-620, 2 hours incubation, read-out: pERK, IC50, SW620
Method: Each of cells in culture medium was seeded in 96-well plates at density indicated in Table 4 and put in a cell incubator to incubate overnight. The next day, the culture medium was removed and the compound diluted in assay medium was added in each well. […] 10 μL of cell lysates from the 96-well plates were transferred to a 384-well plate (Greiner) containing 2.5 μL/well HTRF® pre-mixed antibodies (Cisbio 64AERPEH). The plate was incubated 4 hours at 25° C. and read HTRF signals on Tecan Spark multimode microplate reader. The data were analyzed using a 4-parameter logistic model to calculate IC50 values.

[2] = system: AsPC-1 cells (K-Ras G12D)
Method: (§1) Each of cells in culture medium was plated in TC-treated 96-well plates at a density indicated in Table 4 and incubated in a cell incubator overnight. The next day, each of compounds was diluted in culture medium and added to the plates. After 6 days incubation in cell incubator, the cell viability was detected by CellTiter-Glo® Cell Viability Assay kit (Promega).

SW620 cells (K-Ras G12V) [3] = system: SW620 cells (K-Ras G12V)
Method: as §1

GDP-KRAS G12D, sequence (P01116 1-169 isoform P01116-2 G12D): as the sequence (P01116 1-169 isoform P01116-2 G12D) above
GDP-KRAS G12V, sequence (P01116 1-169 isoform P01116-2 G12V): as the sequence (P01116 1-169 isoform P01116-2 G12V) above

SMILES	pIC50 (GDP-KRAS G12D)	pIC50 (GDP-KRAS G12V)	pIC50 (GppNp-KRAS G12D)	pIC50 (GppNp-KRAS G12V)	pIC50 (SW620 cells (K-Ras G12V) [1])	pIC50 [2]	pIC50 (SW620 cells (K-Ras G12V) [3])
C#Cc1c(F)ccc2cc(N)cc(-c3nc4c5c(nc(OC[C@@]67CCCN6C[C@H](F)C7)nc5c3F)N3CCCC(O)CC3N4C)c12 (stereo partly drawn) [Compound 87]	7.48	7.52	6.05	< 6.00			
C#Cc1c(F)ccc2cc(N)cc(-c3nc4c5c(nc(OC[C@@]67CCCN6C[C@H](F)C7)nc5c3F)N3[C@@H](C)CCOC[C@H]3N4C3CC3)c12 [Compound 90]	8.43	8.89	6.72	6.05	8.03	6.38	7.39
C#Cc1c(F)ccc2cc(N)cc(-c3nc4c5c(nc(OC[C@@]67CCCN6C[C@H](F)C7)nc5c3F)N3[C@@H](CC)CCOC[C@H]3N4C)c12 [Compound 94]	8.93	9.24	6.65	6.69	8.77	7.08	8.22
C#Cc1c(F)ccc2cc(N)cc(-c3nc4c5c(nc(OC[C@@]67CCCN6C[C@H](F)C7)nc5c3F)N3C(C5CCC5)CCOCC3N4C)c12 (stereo partly drawn) [Compound 105]	7.36	7.71	< 6.00	< 6.00			
C#Cc1c(F)ccc2cc(N)cc(-c3nc4c5c(nc(OC[C@@]67CCCN6C[C@H](F)C7)nc5n5c(n4C)=CC=CCC5)c3F)c12 [Compound 112]	7.48	7.67	6.04	< 6.00			
C#Cc1c(F)ccc2cc(N)cc(-c3nc4c5c(nc(OC[C@@]67CCCN6C[C@H](F)C7)nc5c3F)N3CCOCCC3N4C)c12 (stereo partly drawn) [Compound 114]	8.43	8.68	6.53	6.13	7.55	6.23	7.34
C#Cc1c(F)ccc2cc(N)cc(-c3nc4c5c(nc(OC[C@@]67CCCN6C[C@H](F)C7)nc5c3F)N3C(COCCN3C)N4C)c12 (stereo partly drawn) [Compound 118]	7.95	7.93		< 6.00			
C[C@H]1CCOC[C@H]2N(C)c3nc(-c4cc(O)cc5ccc(F)c(Cl)c45)c(F)c4nc(OC[C@@]56CCCN5C[C@H](F)C6)nc(c34)N12 [Compound 119]	8.82	9.09	7.15	6.63	7.89	7.28	7.83
CCc1c(F)ccc2cc(N)cc(-c3nc4c5c(nc(OC[C@@]67CCCN6C[C@H](F)C7)nc5c3F)N3[C@@H](C)CCOC[C@H]3N4C)c12 [Compound 127]	8.41	8.67	6.52	< 6.00	7.66	6.76	7.20
C#Cc1c(F)ccc2cc(N)cc(-c3nc4c5c(nc(OC[C@@]67CCCN6C[C@H](F)C7)nc5c3F)N3CC(F)CC[C@H](F)[C@H]3N4C)c12 (stereo partly drawn) [Compound 134]	8.76	8.84	7.67	7.30			
C#Cc1c(F)ccc2cc(N)cc(-c3nc4c5c(nc(OC[C@@]67CCCN6C[C@H](F)C7)nc5c3F)N3C/C(=N\OC)COC[C@H]3N4C)c12 [Compound 137]	8.73	8.74	6.68	6.31			
N#Cc1c(N)sc2c(F)ccc(-c3cc4c5c(nc(OC[C@@]67CCCN6C[C@H](F)C7)nc5c3F)N3CCCCC[C@H]3CO4)c12 [Compound 139]	7.71	7.67		< 6.00			
C#Cc1c(F)ccc2cc(N)cc(-c3nc4c5c(nc(OCC6(CN7CCOCC7)CCC6)nc5c3F)N3CCCOCC3N4C)c12 (stereo not drawn) [Compound 140]	7.86	8.15	< 6.00	< 6.00			
C#Cc1c(F)ccc2cc(N)cc(-c3nc4c5c(nc(OCC(CN6CCOCC6)OC)nc5c3F)N3CCCOCC3N4C)c12 (stereo not drawn) [Compound 142]	6.63	7.18	< 6.00	< 6.00			
C#Cc1c(F)ccc2cc(N)cc(-c3nc4c5c(nc(OC[C@@]67CCCN6C[C@H](F)C7)nc5c3F)N3C(CCCC[C@@H]3C(C)O)N4C)c12 (stereo partly drawn) [Compound 143]	8.60	8.53	6.61	6.20			
C#Cc1c(F)ccc2cc(N)cc(-c3nc4c5c(nc(OC[C@@]67CCCN6C[C@H](F)C7)nc5c3F)N3C/C(=N\OC)COC[C@@H]3N4C)c12 [Compound 148]	6.54	6.39	< 6.00	< 6.00			
C#Cc1c(F)ccc2cc(N)cc(-c3nc4c5c(nc(OC[C@@]67CCCN6C[C@H](F)C7)nc5c3F)N3CCCC3N4C)c12 (stereo partly drawn) [Compound 153]	7.08	7.86	< 6.00	< 6.00			
